Measured values: PubChem BioAssay AID179 (DTP/NCI, 2004)
pEC50, pIC50: −log10 of the molar value. Calls of active or inactive are those of the source.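 The calls were made as follows: active = compounds giving half or more protection of infected cells from virus-caused growth loss, again on retest; inactive = the rest.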 Where a SMILES comes first, the peptide text is derived from it.

Test system: CEM cells HIV-1 protection, formazan growth assay
Assay: NCI AIDS Antiviral Assay
Settings: for pIC50: measured here: growth of uninfected CEM cells
How it was run: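 Five concentrations of each compound were applied to infected and uninfected human CEM cells. Protection from HIV-1 was judged from growth measured with a soluble formazan assay.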

| SMILES | pEC50 | pIC50 | outcome |
| --- | --- | --- | --- |
| O=C1/C(=C/c2ccc3c(c2)OCCO3)CCC/C1=C\c1ccc2c(c1)OCCO2 | < 5.16 | < 5.16 | – |
| CC(C)(C)OC(=O)N1N=NC2C3OC(CC3=O)C21 (configuration not stated) | < 3.15 | 3.45 | – |
| CCOC(=O)CCC1(C(=O)OCC)CCCCC1=O (configuration not stated) | < 3.60 | < 3.60 | – |
| CN(C)c1cc[n+](-c2c([O-])c3ccccc3n(-c3ccccc3)c2=O)cc1 | < 3.70 | 3.71 | – |
| CCCCCCCCCCCCCCCc1cccc(O)c1C(=O)O | – | – | inactive |
| COC1=CC(=O)C(C#CCOCc2ccccc2)=CC1=O | < 3.70 | 4.83 | – |
| CN(Cc1c2ccccc2cc2ccccc12)S(=O)(=O)c1ccc(-c2c3nc(c(-c4ccc(S(=O)(=O)N(C)Cc5c6ccccc6cc6ccccc56)cc4)c4ccc([nH]4)c(-c4ccc(S(=O)(=O)N(C)Cc5c6ccccc6cc6ccccc56)cc4)c4nc(c(-c5ccc(S(=O)(=O)N(C)Cc6c7ccccc7cc7ccccc67)cc5)c5ccc2[nH]5)C=C4)C=C3)cc1 | < 4.00 | < 4.00 | – |
| COC1OCC(N)C(O)C1O (configuration not stated) | – | – | inactive |
| O=C(CCCN1CCC2(CC1)CC(=O)N(N1CCOCC1)C2=O)c1ccccc1 | < 3.70 | < 3.70 | – |
| Cc1[cH-]c(=O)n(-c2ccccc2)n1.[Au+].[Au].c1ccc([PH+](c2ccccc2)c2ccccc2)cc1.c1ccc([PH+](c2ccccc2)c2ccccc2)cc1 | < 5.46 | < 5.46 | – |
| CCN(CC)/[N+]([O-])=N/OCC(C)O (configuration not stated) | < 2.09 | < 2.09 | – |
| C(=C\P(c1ccccc1)c1ccccc1)/P(/C=C/P(c1ccccc1)c1ccccc1)c1ccccc1 | < 5.31 | < 5.31 | – |
| N#Cc1ccccc1NC(=O)/C(=N\NC(=O)c1ccncc1)C(c1cnc2ccc([N+](=O)[O-])cc2n1)[N+](=O)[O-] (configuration not stated) | < 3.32 | 3.72 | – |
| c1ccc2c(c1)Nc1nc3nonc3nc1N2 | < 3.70 | < 3.70 | – |
| CS(=O)(=O)Sc1ccccc1C(=O)O | < 2.97 | < 2.97 | – |
| COC1=C(Br)[C@H](O)[C@@]2(C=C1Br)CC(C(=O)NCCCCCN=C(N)N)=NO2 | < 5.00 | < 5.00 | – |
| CCOC(=O)CN1C(=O)S/C(=C2\C(=O)N(C)c3ccccc32)C1=O | < 3.70 | < 3.70 | – |
| COC(OC)c1cccc2c1C(=O)CCC1(O)c3ccccc3C1C2 (configuration not stated) | < 3.81 | 3.86 | – |
| Brc1ccc(N=c2nc3ccccn3n3nc(-c4ccccc4)cc23)cc1 | < 4.62 | < 4.62 | – |
| Cc1ccccc1Nc1nc2ccccc2nc1NS(=O)(=O)c1ccccc1 | < 3.70 | < 3.70 | – |

| SMILES | pEC50 | pIC50 | outcome |
| --- | --- | --- | --- |
| CCCC(Cc1ccccc1)N1CCCC1 (configuration not stated) | < 3.70 | < 3.70 | – |
| CCOC(=O)CCC(NC(=O)c1ccc(Nc2nc3ccc(C(F)(F)F)cc3nc2-c2ccccc2)cc1)C(=O)OCC (configuration not stated) | < 3.70 | 3.85 | – |
| COc1ccc2[nH]c(Br)c(CCNC(C)=O)c2c1 | < 3.70 | < 3.70 | – |
| COC[C@@H](N=CN1CCc2ccccc2C1)c1ccccc1 | < 3.49 | < 3.49 | – |
| [Au+].[Au+].[Au+].[c-]1nccn1Cc1ccccc1.[c-]1nccn1Cc1ccccc1.[c-]1nccn1Cc1ccccc1 | < 5.45 | < 5.45 | – |
| CC(C)CC(NC(=O)C(Cc1ccc(O)cc1)NC(=O)C(CO)NC(=O)C(CCC(=O)O)NC(=O)C1CCCN1C(=O)C(CC(C)C)NC(=O)C(C)NC(=O)CNC(=O)C(N)CCC(=O)O)C(=O)NCC(=O)O (configuration not stated) (H-EGALPESYLG-OH; configuration not given here) | – | – | inactive |
| CO/N=C(\C([O-])=N\[n+]1cnn(CC(=O)OC(C)(C)C)c1)c1csc(NC(c2ccccc2)(c2ccccc2)c2ccccc2)n1 | < 3.70 | 4.43 | – |
| Cc1nn(C(=O)Cc2ccccc2)c2c1C(c1ccccc1O)SC(N)=N2 (configuration not stated) | 4.24 | 3.40 | – |
| O=C1c2ccccc2C(=O)c2cc(N=Nc3c(O)ccc4ccccc34)ccc21 | < 4.00 | < 4.00 | – |
| O=c1[nH]c2ccccc2c(O)c1N=Nc1ccc(N=Nc2ccc(S(=O)(=O)O)cc2)cc1 | < 3.70 | < 3.70 | – |
| CC(=O)/C(=C/c1ccc(N(C)C)cc1)c1ccccc1 | < 4.71 | < 4.71 | – |
| CC1=NN(C(=O)c2ccccc2O)C(=O)/C1=C/c1ccccc1O | < 4.51 | 7.21 | – |
| C=Cc1cncc(C#N)c1CCc1c(C#N)cncc1C=C | < 4.46 | < 4.46 | – |
| CC(=O)Nc1ccc(NC(=O)CC(=O)Nc2ccc(NC(C)=O)cc2)cc1 | < 3.70 | < 3.70 | – |
| CN(/N=C/c1cccs1)c1ccc(Cl)cc1[N+](=O)[O-] | < 3.70 | 4.22 | – |
| CO[C@@H]1CCC=C(C=O)O1 | – | – | inactive |
| Cc1cc2c3c(c1)CCCN3CCC2 | < 3.70 | < 3.70 | – |
| Nc1ccc(S(=O)(=O)Nc2nccs2)cc1N=Nc1ccccc1[N+](=O)[O-] | < 3.70 | < 3.70 | – |
| CCOC(=O)C12CCC(=O)C=C1[C@@H](C)C(=O)CC2 (some centres not stated) | < 3.00 | 3.44 | – |
| C=C1[C@@H](OC(C)=O)C[C@@H]2C[C@]3(C)C(OC(C)=O)CC(C)(C)[C@@H]3C12O (some centres not stated) | < 3.69 | < 3.69 | – |

| SMILES | pEC50 | pIC50 | outcome |
| --- | --- | --- | --- |
| O=S1Cc2ccccc2CS1 (configuration not stated) | – | – | inactive |
| O=C1c2ccccc2CC12Cc1ccccc1C2 | < 3.70 | 4.16 | – |
| COC(=O)c1c(-c2ccccc2)c2sc3ccccc3n2c1N | < 3.70 | < 3.70 | – |
| Cc1ccc(C2=NOC(=O)[C@@H]3CCCC[C@@H]23)cc1 | < 3.70 | 4.01 | – |
| CC1=C2C(=CO[C@H](C)[C@H]2C)C(=O)C(C(=O)O)=C1O | < 3.84 | 4.60 | – |
| N=C(N)c1ccc(OCCCOc2ccc(C(=N)N)cc2)cc1 | < 3.70 | 4.77 | – |
| Cc1cc(C)nc(NS(=O)(=O)c2ccc(NC(=O)c3ccc4nc5ccccc5c(Nc5ccc(S(N)(=O)=O)cc5)c4c3)cc2)n1 | < 3.70 | 4.40 | – |
| COc1ccc(CC2=CC(=O)C(=O)C=C2C)cc1 | < 4.25 | 4.52 | – |
| COc1nc(NC2OCC(O)C(O)C2O)cc(=O)n1C (configuration not stated) | – | – | inactive |
| O=C(O)Cn1cnc2c(=O)[nH]c(Nc3ccccc3)nc21 | < 3.70 | < 3.70 | – |
| CC(C)CC(C#N)C(N)=O (configuration not stated) | < 3.70 | < 3.70 | – |
| C[Si](C)(C)CCCS(=O)(=O)O | < 3.70 | < 3.70 | – |
| CCN(C)N=Nc1ccc(C(N)=O)cc1 | < 2.92 | 3.21 | – |
| Cc1c2ccccc2nc(CSc2nc3ccccc3s2)[n+]1[O-] | 4.19 | < 3.70 | – |
| Cn1cc(NC(=O)Nc2cc(C(=O)Nc3cc(C(=O)Nc4cc(C(=O)Nc5ccc(P(=O)(O)O)c6cc(P(=O)(O)O)ccc56)n(C)c4)n(C)c3)n(C)c2)cc1C(=O)Nc1cc(C(=O)Nc2cc(C(=O)Nc3ccc(P(=O)(O)O)c4cc(P(=O)(O)O)ccc34)n(C)c2)n(C)c1 | 5.89 | 4.43 | – |
| O=C(O)c1ccccc1C(=O)CCC(=O)c1ccccc1C(=O)O | < 3.70 | < 3.70 | – |
| C=C1c2nc3ccccc3n2C=C(c2ccccc2)N1c1ccc(Cl)cc1 | < 3.70 | 4.49 | – |
| COc1ccc(NC(=O)C(=O)NNC(=O)c2sc(NNC(C)=O)nc2C)c([N+](=O)[O-])c1 | < 4.52 | < 4.52 | – |
| CC(C)C(Sc1nc(-c2ccccc2)c(-c2ccccc2)[nH]1)C(=O)N/N=C/c1ccc([N+](=O)[O-])cc1 (configuration not stated) | < 4.84 | < 4.84 | – |
